Measurements from ChEMBL document CHEMBL3885881, “DrugMatrix”.

Species on record: Rattus norvegicus
Assay: DrugMatrix - Regimen: Daily Repeat
Format: toxicity, organism-based, Sprague-Dawley
Set-up: regimen Daily Repeat, gender Male, age 6-8 weeks
Conditions: in vivo, po, route oral GAVAGE, […]
[1] = 0 mg/kg, 72 h, tissue Blood, dose level Control, time 3 day
[2] = 0 mg/kg, 72 h, tissue Plasma, dose level Control, time 3 day
[3] = 0 mg/kg, 120 h, tissue Blood, dose level Control, time 5 day
[4] = 0 mg/kg, 120 h, tissue Plasma, dose level Control, time 5 day
[5] = 72 h, tissue Blood, dose 6.3 mg/Kg, dose level Low, time 3 day
[6] = 72 h, tissue Plasma, dose 6.3 mg/Kg, dose level Low, time 3 day
[7] = 120 h, tissue Blood, dose 6.3 mg/Kg, dose level Low, time 5 day
[8] = 120 h, tissue Plasma, dose 6.3 mg/Kg, dose level Low, time 5 day

## ZIRCONIUM(IV) CHLORIDE
[1]
  ABSOLUTE BASOPHIL: 0 CELLS/uL
  ABSOLUTE EOSINOPHIL: 13.67 CELLS/uL
  ABSOLUTE LYMPHOCYTE: 10069.5 CELLS/uL
  ABSOLUTE MONOCYTE: 50 CELLS/uL
  ABSOLUTE SEGMENTED NEUTROPHIL: 516.83 CELLS/uL
  BASOPHIL: 0%
  EOSINOPHIL: 0.17%
  ERYTHROCYTE COUNT: 5.44 x10E6/uL
  HEMATOCRIT: 33.88%
  HEMOGLOBIN: 13.23 G/DL
  LEUKOCYTE COUNT: 10.65 x10E3/uL
  LYMPHOCYTE: 94.67%
  MEAN CORPUSCULAR HEMOGLOBIN: 24.37 pg
  MEAN CORPUSCULAR HEMOGLOBIN CONCENTRATION: 39.05 G/DL
  MONOCYTE: 0.67%
  NEUTROPHIL: 4.5%
  NUCLEATED RED BLOOD CELLS: 0.33 /100WBC
  PLATELET COUNT: 414.5 x10E3/uL
[2]
  ALANINE AMINOTRANSFERASE: 72 u/L
  ALKALINE PHOSPHATASE: 375 u/L
  ASPARTATE AMINOTRANSFERASE: 87.5 u/L
  BLOOD UREA NITROGEN: 14 mg/dL
  CARBON DIOXIDE: 27.5 mmol/L
  CHLORIDE: 95.83 MEQ/L
  CHOLESTEROL: 68.5 mg/dL
  CREATINE PHOSPHOKINASE: 284.33 u/L
  CREATININE: 0.16 mg/dL
  LACTATE DEHYDROGENASE: 101.83 u/L
  PHOSPHORUS: 10.33 mg/dL
  POTASSIUM: 5.22 MEQ/L
  TOTAL BILIRUBIN: 0.13 mg/dL
  TOTAL PROTEIN: 5.43 G/DL
  URIC ACID: 0.8 mg/dL
[3]
  ABSOLUTE BASOPHIL: 0 CELLS/uL
  ABSOLUTE EOSINOPHIL: 20.67 CELLS/uL
  ABSOLUTE LYMPHOCYTE: 11518.33 CELLS/uL
  ABSOLUTE MONOCYTE: 47 CELLS/uL
  ABSOLUTE SEGMENTED NEUTROPHIL: 614 CELLS/uL
  BASOPHIL: 0%
  EOSINOPHIL: 0.17%
  ERYTHROCYTE COUNT: 5.61 x10E6/uL
  HEMATOCRIT: 34.25%
  LEUKOCYTE COUNT: 12.2 x10E3/uL
  LYMPHOCYTE: 94.33%
  MEAN CORPUSCULAR HEMOGLOBIN: 23.83 pg
  MEAN CORPUSCULAR HEMOGLOBIN CONCENTRATION: 39.08 G/DL
  MEAN CORPUSCULAR VOLUME: 61.03 fL
  MONOCYTE: 0.33%
  NEUTROPHIL: 5.17%
  NUCLEATED RED BLOOD CELLS: 0 /100WBC
  PLATELET COUNT: 941.83 x10E3/uL
[4]
  ALANINE AMINOTRANSFERASE: 68.83 u/L
  ALKALINE PHOSPHATASE: 492.67 u/L
  ASPARTATE AMINOTRANSFERASE: 83.33 u/L
  BLOOD UREA NITROGEN: 14 mg/dL
  CARBON DIOXIDE: 37 mmol/L
  CHLORIDE: 98.67 MEQ/L
  CHOLESTEROL: 56.5 mg/dL
  CREATINE PHOSPHOKINASE: 167.33 u/L
  CREATININE: 0.17 mg/dL
  GLUCOSE: 157.5 mg/dL
  LACTATE DEHYDROGENASE: 104.83 u/L
  LIPASE: 10 u/L
  PHOSPHORUS: 10.43 mg/dL
  POTASSIUM: 5.46 MEQ/L
  TOTAL BILIRUBIN: 0.17 mg/dL
  TOTAL PROTEIN: 5.72 G/DL
  URIC ACID: 0.85 mg/dL
[5]
  ABSOLUTE BASOPHIL: 0 CELLS/uL
  ABSOLUTE EOSINOPHIL: 0 CELLS/uL
  ABSOLUTE LYMPHOCYTE: 15285.67 CELLS/uL
  ABSOLUTE MONOCYTE: 331 CELLS/uL
  ABSOLUTE SEGMENTED NEUTROPHIL: 1716.67 CELLS/uL
  BASOPHIL: 0%
  EOSINOPHIL: 0%
  ERYTHROCYTE COUNT: 5.71 x10E6/uL
  HEMOGLOBIN: 13.97 G/DL
  LEUKOCYTE COUNT: 17.33 x10E3/uL
  LYMPHOCYTE: 88%
  MEAN CORPUSCULAR HEMOGLOBIN CONCENTRATION: 38.27 G/DL
  MONOCYTE: 2%
  NEUTROPHIL: 10%
  NUCLEATED RED BLOOD CELLS: 0 /100WBC
  PLATELET COUNT: 1101 x10E3/uL
[6]
  ALANINE AMINOTRANSFERASE: 74.67 u/L
  ALKALINE PHOSPHATASE: 510.33 u/L
  ASPARTATE AMINOTRANSFERASE: 87.33 u/L
  BLOOD UREA NITROGEN: 14.33 mg/dL
  CARBON DIOXIDE: 27 mmol/L
  CHOLESTEROL: 56.33 mg/dL
  CREATINE PHOSPHOKINASE: 244 u/L
  CREATININE: 0.15 mg/dL
  GLUCOSE: 186.67 mg/dL
  LACTATE DEHYDROGENASE: 186 u/L
  PHOSPHORUS: 12.53 mg/dL
  POTASSIUM: 5.75 MEQ/L
  TOTAL BILIRUBIN: 0.1 mg/dL
[7]
  ABSOLUTE BASOPHIL: 0 CELLS/uL
  ABSOLUTE EOSINOPHIL: 0 CELLS/uL
  ABSOLUTE LYMPHOCYTE: 13034.67 CELLS/uL
  ABSOLUTE MONOCYTE: 344.67 CELLS/uL
  ABSOLUTE SEGMENTED NEUTROPHIL: 1154 CELLS/uL
  BASOPHIL: 0%
  EOSINOPHIL: 0%
  ERYTHROCYTE COUNT: 6.21 x10E6/uL
  HEMATOCRIT: 38.6%
  HEMOGLOBIN: 14.47 G/DL
  LEUKOCYTE COUNT: 14.53 x10E3/uL
  MEAN CORPUSCULAR HEMOGLOBIN: 23.3 pg
  MEAN CORPUSCULAR HEMOGLOBIN CONCENTRATION: 37.47 G/DL
  NEUTROPHIL: 8%
  NUCLEATED RED BLOOD CELLS: 0 /100WBC
  PLATELET COUNT: 1100.67 x10E3/uL
[8]
  ALANINE AMINOTRANSFERASE: 68.67 u/L
  ALKALINE PHOSPHATASE: 472.33 u/L
  ASPARTATE AMINOTRANSFERASE: 84.33 u/L
  BLOOD UREA NITROGEN: 13.33 mg/dL
  CARBON DIOXIDE: 31.33 mmol/L
  CHOLESTEROL: 55.33 mg/dL
  CREATINE PHOSPHOKINASE: 232 u/L
  CREATININE: 0.14 mg/dL
  LACTATE DEHYDROGENASE: 112.67 u/L
  PHOSPHORUS: 11.63 mg/dL
  POTASSIUM: 6.33 MEQ/L
  TOTAL BILIRUBIN: 0.2 mg/dL
  TOTAL PROTEIN: 5.5 G/DL
